This is an account of results in patent US12667572B2, “Tricyclic compounds useful in the treatment of cancer, autoimmune and inflammatory disorders” (SCHRÖDINGER, INC., priority 2021, dated 2026).

In this assay the target is T1, full-length MALT1 protein His-MALT1(1-824) (Homo sapiens, UniProt Q9UDY8).
T1 construct: full-length MALT1 protein His-MALT1(1-824); His (N); made in house; host or cells: baculovirus-infected insect cells
T1 sequence (Q9UDY8 1-824): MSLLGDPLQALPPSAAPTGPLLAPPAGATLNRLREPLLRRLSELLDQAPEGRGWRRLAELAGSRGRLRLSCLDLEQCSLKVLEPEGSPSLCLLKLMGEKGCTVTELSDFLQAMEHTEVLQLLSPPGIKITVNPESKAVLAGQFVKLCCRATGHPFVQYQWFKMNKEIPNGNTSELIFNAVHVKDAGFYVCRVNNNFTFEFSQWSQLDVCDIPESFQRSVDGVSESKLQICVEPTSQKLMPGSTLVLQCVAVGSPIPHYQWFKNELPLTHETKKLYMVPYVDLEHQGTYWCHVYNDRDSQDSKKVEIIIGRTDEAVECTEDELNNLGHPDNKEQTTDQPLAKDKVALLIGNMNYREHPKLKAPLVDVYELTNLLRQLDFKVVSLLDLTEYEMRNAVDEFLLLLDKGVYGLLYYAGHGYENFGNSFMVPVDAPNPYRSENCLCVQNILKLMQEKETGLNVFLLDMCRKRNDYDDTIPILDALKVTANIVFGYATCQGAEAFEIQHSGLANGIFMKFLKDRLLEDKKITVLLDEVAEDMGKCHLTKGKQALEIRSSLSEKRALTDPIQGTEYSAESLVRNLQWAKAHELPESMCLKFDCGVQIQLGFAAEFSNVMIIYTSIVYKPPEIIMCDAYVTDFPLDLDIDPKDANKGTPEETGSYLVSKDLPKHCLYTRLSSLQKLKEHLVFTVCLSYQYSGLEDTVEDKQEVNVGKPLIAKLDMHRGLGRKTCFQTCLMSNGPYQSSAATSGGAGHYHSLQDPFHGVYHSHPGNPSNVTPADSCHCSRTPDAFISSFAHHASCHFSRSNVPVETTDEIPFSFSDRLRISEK
The experiment in a line: MALT1 protease assay, Assay 2 (1 nM MALT1, Ac-LRSR-AMC substrate). The assay is classed as biochemical. The conditions noted are these: 1 nM MALT1, 50 μM Ac-LRSR-AMC, 2 h pre-incubation, 8 hr incubation at RT. Put shortly: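 Compounds (0.1% DMSO final) sat 2 h at RT with insect-cell-expressed His-MALT1(1-824), in 50 mM Tris pH 7.5, 600 mM sodium citrate, 1 mM DTT, 1 mM EDTA, 0.05% BSA. Cleavage of 50 μM Ac-LRSR-AMC (Km ~100 μM) ran 8 h at RT, read as AMC fluorescence. IC50 and Hill coefficient fitted to % remaining activity.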

In general, IC50 refers to the concentration that inhibits the measured activity by half. A high value points to weaker potency in that assay.

For `CC1(C)CC(C(=O)Nc2cc(C(F)F)c(-n3cccn3)c(=O)[nH]2)c2cnc3cc(Cl)nn3c21` (stereo not drawn) [Example 62, 2-chloro-N-(4-(difluoromethyl)-6-oxo-5-(1H-pyrazol-1-yl)-1,6-dihydropyridin-2-yl)-8,8-dimethyl-7,8-dihydro-6H-cyclopenta[e]pyrazolo[1,5-a]pyrimidine-6-carboxamide], the IC50 was in the range of 10 to 100 nM.

As for `CC1(C)CC(C(=O)Nc2cnc(-n3ncnn3)c(Cl)c2)c2cnc3cc(Cl)nn3c21` (stereo not drawn) [Example 120, 2-chloro-N-(5-chloro-6-(2H-tetrazol-2-yl)pyridin-3-yl)-8,8-dimethyl-7,8-dihydro-6H-cyclopenta[e]pyrazolo[1,5-a]pyrimidine-6-carboxamide], the IC50 lay within 10 to 100 nM.

In turn, `Cn1nnnc1-c1ncc(NC(=O)[C@@H]2CC(C)(C)c3c2cnc2cc(Cl)nn32)cc1Cl` (single isomer, unassigned) [Example 144, 2-chloro-N-(5-chloro-6-(1-methyl-1H-tetrazol-5-yl)pyridin-3-yl)-8,8-dimethyl-7,8-dihydro-6H-cyclopenta[e]pyrazolo[1,5-a]pyrimidine-6-carboxamide] yielded an IC50 of 10 to 100 nM. `CC1(C)C[C@@H](C(=O)Nc2cnc(-n3nccn3)c(C(F)(F)F)c2)c2cnc3cc(F)nn3c21` (single isomer, unassigned) [Example 150, N-(6-(2H-1,2,3-triazol-2-yl)-5-(trifluoromethyl)pyridin-3-yl)-2-fluoro-8,8-dimethyl-7,8-dihydro-6H-cyclopenta[e]pyrazolo[1,5-a]pyrimidine-6-carboxamide] yielded an IC50 of 10 to 100 nM. Consider `CC(C)(O)c1ncc(NC(=O)[C@H]2CC3(CCC3)c3c2cnc2cc(F)nn32)cc1Cl` (single isomer, unassigned) [Example 105, N-(5-chloro-6-(2-hydroxypropan-2-yl)pyridin-3-yl)-2′-fluoro-6′,7′-dihydrospiro[cyclobutane-1,8′-cyclopenta[e]pyrazolo[1,5-a]pyrimidine]-6′-carboxamide], for which the concentration for half-maximal inhibition (IC50) is at least 1000 nM.

On to `CC(C)(C)C1OC(=O)c2cc(NC(=O)C3CC4(CCC4)c4c3cnc3cc(F)nn43)cnc21` (stereo not drawn) [Example 166, N-(7-(tert-butyl)-5-oxo-5,7-dihydrofuro[3,4-b]pyridin-3-yl)-2′-fluoro-6′,7′-dihydrospiro[cyclobutane-1,8′-cyclopenta[e]pyrazolo[1,5-a]pyrimidine]-6′-carboxamide], for which the IC50 is at least 1000 nM.

For the molecule `C[C@@]1(C(F)(F)F)C[C@@H](C(=O)Nc2cnc(-n3nccn3)c(C(F)(F)F)c2)c2cnc3cc(Cl)nn3c21` (single isomer, unassigned) [Example 53, N-(6-(2H-1,2,3-triazol-2-yl)-5˜(trifluoromethyl)pyridin-3-yl)-2-chloro-8-methyl-8-(trifluoromethyl)-7,8-dihydro-6H-cyclopenta[e]pyrazolo[1,5-a]pyrimidine-6-carboxamide], the IC50 lay in the range of 100 to 1000 nM. As to `O=C(Nc1cnc(-n2nccn2)c(C(F)(F)F)c1)C1CC2(CC2)c2c1cnc1cc(Cl)nn21` (single isomer, unassigned) [Example 148, N-(6-(2H-1,2,3-triazol-2-yl)-5-(trifluoromethyl)pyridin-3-yl)-2-chloro-6,7-dihydrospiro[cyclopenta[e]pyrazolo[1,5-a]pyrimidine-8,1′-cyclopropane]-6-carboxamide], the IC50 was at least 1000 nM. `C[C@]1(C(F)(F)F)C[C@@H](C(=O)Nc2cnc(-n3nccn3)c(Cl)c2)c2cnc3cc(F)nn3c21` (single isomer, unassigned) [Example 184]: the IC50 fell in the range of 100 to 1000 nM.

`CC1(C)C[C@](C)(C(=O)Nc2cnc(-n3nccn3)c(Cl)c2)c2cnc3cc(Cl)nn3c21` (single isomer, unassigned) [Example 138, 2-chloro-N-(5-chloro-6-(2H-1,2,3-triazol-2-yl)pyridin-3-yl)-6,8,8-trimethyl-7,8-dihydro-6H-cyclopenta[e]pyrazolo[1,5-a]pyrimidine-6-carboxamide] came in with an IC50 of at least 1000 nM. As for `N#Cc1cc(NC(=O)C2CC3(CCOCC3)c3c2cnc2cc(F)nn32)cnc1OC(F)F` (single isomer, unassigned) [Example 147, N-(5-cyano-6-(difluoromethoxy)pyridin-3-yl)-2-fluoro-2′,3′,5′,6,6′,7-hexahydrospiro[cyclopenta[e]pyrazolo[1,5-a]pyrimidine-8,4′-pyran]-6-carboxamide], the half-maximal inhibitory concentration (IC50) was at least 1000 nM. Take `CC1(C)C[C@@H](C(=O)Nc2cnc(-n3nccn3)c(Cl)c2)c2cnn3cc(C(F)F)nc3c21` (single isomer, unassigned) [Example 202, N-(5-chloro-6-(2H-1,2,3-triazol-2-yl)pyridin-3-yl)-2-(difluoromethyl)-9,9-dimethyl-8,9-dihydro-7H-cyclopenta[d]imidazo[1,2-b]pyridazine-7-carboxamide]: the IC50 fell in the range of 100 to 1000 nM. Molecule `CC1(C)CC(C(=O)Nc2cc(C(F)F)c(-c3cnco3)c(=O)[nH]2)c2cnc3cc(Cl)nn3c21` (stereo not drawn) [Example 59, 2-chloro-N-(4-(difluoromethyl)-5˜(oxazol-5-yl)-6-oxo-1,6-dihydropyridin-2-yl)-8,8-dimethyl-7,8-dihydro-6H-cyclopenta[e]pyrazolo[1,5-a]pyrimidine-6-carboxamide] had an IC50 of 10 to 100 nM.

`C[C@]1(C(F)(F)F)C[C@@H](C(=O)Nc2cnc(-n3nccn3)c(C(F)F)c2)c2cnc3cc(Cl)nn3c21` (single isomer, unassigned) [Example 63, 2-chloro-N-(5-(difluoromethyl)-6-(2H-1,2,3-triazol-2-yl)pyridin-3-yl)-8-methyl-8-(trifluoromethyl)-7,8-dihydro-6H-cyclopenta[e]pyrazolo[1,5-a]pyrimidine-6-carboxamide] had an IC50 of 100 to 1000 nM. Consider `CCO[C@@]1(C(F)(F)F)C[C@@H](C(=O)Nc2cnc(-n3nccn3)c(Cl)c2)c2cnc3cc(Cl)nn3c21` (single isomer, unassigned) [Example 167, (cis)-2-chloro-N-(5-chloro-6-(2H-1,2,3-triazol-2-yl)pyridin-3-yl)-8-ethoxy-8-(trifluoromethyl)-7,8-dihydro-6H-cyclopenta[e]pyrazolo[1,5-a]pyrimidine-6-carboxamide], for which the IC50 lay in the range of 100 to 1000 nM. Under `CC1(C)CC(C(=O)Nc2cnc(-c3nnnn3C3COC3)c(Cl)c2)c2cnc3cc(Cl)nn3c21` (stereo not drawn) [Example 163, 2-chloro-N-(5-chloro-6-(1-(oxetan-3-yl)-1H-tetrazol-5-yl)pyridin-3-yl)-8,8-dimethyl-7,8-dihydro-6H-cyclopenta[e]pyrazolo[1,5-a]pyrimidine-6-carboxamide] stands 100 to 1000 nM; under `CC1(C)C[C@@H](C(=O)Nc2cnc(OC(F)F)c(C#N)c2)c2cnc3cc(C(F)F)nn3c21` (single isomer, unassigned) [Example 125, N-(5-cyano-6-(difluoromethoxy)pyridin-3-yl)-2-(difluoromethyl)-8,8-dimethyl-7,8-dihydro-6H-cyclopenta[e]pyrazolo[1,5-a]pyrimidine-6-carboxamide], at least 1000 nM. As to `CC1(C)CC(C(=O)Nc2cnc(C(=O)N3CCC3)c(C(F)(F)F)c2)c2cnc3cc(Cl)nn3c21` (stereo not drawn) [Example 118, N-(6-(azetidine-1-carbonyl)-5˜(trifluoromethyl)pyridin-3-yl)-2-chloro-8,8-dimethyl-7,8-dihydro-6H-cyclopenta[e]pyrazolo[1,5-a]pyrimidine-6-carboxamide], the IC50 was in the range of 10 to 100 nM. To `CC1(C)C[C@@H](C(=O)Nc2cnc(-n3nccn3)c(C(F)(F)F)c2)c2cnc3cc(Cl)nn3c21` (single isomer, unassigned) [Example 45, N-(6-(2H-1,2,3-triazol-2-yl)-5˜(trifluoromethyl)pyridin-3-yl)-2-chloro-8,8-dimethyl-7,8-dihydro-6H-cyclopenta[e]pyrazolo[1,5-a]pyrimidine-6-carboxamide] belongs at least 1000 nM. To `Cc1c(F)nn2c3c(cnc12)C(C(=O)Nc1cnc(-n2nccn2)c(Cl)c1)CC3(C)C` (single isomer, unassigned) [Example 114, N-(5-chloro-6-(2H-1,2,3-triazol-2-yl)pyridin-3-yl)-2-fluoro-3,8,8-trimethyl-7,8-dihydro-6H-cyclopenta[e]pyrazolo[1,5-a]pyrimidine-6-carboxamide] belongs 100 to 1000 nM; to `CC1(C)CC(C(=O)Nc2cnc(OC(F)F)c(C#N)c2)c2cnc3cc(Cl)nn3c21` (single isomer, unassigned) [Example 78, 2-chloro-N-(5-cyano-6-(difluoromethoxy)pyridin-3-yl)-8,8-dimethyl-7,8-dihydro-6H-cyclopenta[e]pyrazolo[1,5-a]pyrimidine-6-carboxamide], 100 to 1000 nM.
